Assay results: patent publication US7915287B2, “Substituted heterocycles and methods of use” (Amgen Inc., priority 2006, dated 2011)
pKi: −log10 of the molar value.

Target: T1, c-Met (Homo sapiens, UniProt P08581)
T1 construct: A PCR product covering residues 1058-1365 of c-Met (c-Met kinase domain) is generated; made in house; host or cells: baculovirus-infected (insect) cells
Experiment: c-Met receptor assay (HTRF kinase assay with GST-cMet (P), gastrin and ATP)
Type: biochemical
Conditions: illustrative activity values
Experimental: Phosphorylation of the purified GST-cMET is performed by incubating the protein for 3 h at RT with the following:
After incubation, the solution is concentrated in a Vivaspin 20 ml Concentrator to a volume less than 2.00 ml. The solution is applied to the same Superdex 75 16/60 column used above after re-equilibration. The GST-cMET is eluted as described above. The elution fractions corresponding to the first eluted peak on the chromatogram are run on a 12% Tris Glycine gel, as above, to identify the fractions with GST-cMET. Fractions are pooled and the OD280 is read with the column buffer used as the blank.
A Kinase reaction Buffer is prepared as follows:
When the assay is carried out, freshly add:
The HTRF buffer contains:
1. Dilute GST-cMet (P) enzyme in kinase buffer as follows:
2. Assay plate preparation:
Then incubate the plate at RT for 30 min.
3. Prepare Gastrin and ATP working solution in kinase reaction buffer as follows:
Use Biomek FX to add 20 μl ATP and Gastrin working solution to the assay plate to start reaction, incubate the plate at RT for 1 h.
KM ATP, KM gastrin for various enzymes were determined by HTRF/^33P labeling and HTRF methods.
Cloning, Expression and Purification of c-Met Kinase Domain
Alternative Purification of Human GST-cMET from Baculovirus Cells
The resin is washed with 10 column volumes (100 mL) of Lysis Buffer. […] The elution is collected as 15 mL fractions. Aliquots of the elution fractions are run on SDS PAGE (12% Tris Glycine gel, Invitrogen, #EC6005BOX). The gel is stained with 0.25% Coomassie Blue stain. Fractions with GST-cMET are concentrated with a Vivaspin 20 mL Concentrator (#VS2002; 10.00 MW cutoff) to a final volume less than 2.0 ml. […] The GST-cMET is eluted with an isocratic run of the above buffer, with the eluent collected in 1.0 mL fractions. Fractions with significant OD280 readings are run on another 12% Tris Glycine gel. The peak tubes with GST-cMET are pooled and the OD280 is read with the column buffer listed above as the blank buffer. […]

T1 sequence (P08581 1058-1365): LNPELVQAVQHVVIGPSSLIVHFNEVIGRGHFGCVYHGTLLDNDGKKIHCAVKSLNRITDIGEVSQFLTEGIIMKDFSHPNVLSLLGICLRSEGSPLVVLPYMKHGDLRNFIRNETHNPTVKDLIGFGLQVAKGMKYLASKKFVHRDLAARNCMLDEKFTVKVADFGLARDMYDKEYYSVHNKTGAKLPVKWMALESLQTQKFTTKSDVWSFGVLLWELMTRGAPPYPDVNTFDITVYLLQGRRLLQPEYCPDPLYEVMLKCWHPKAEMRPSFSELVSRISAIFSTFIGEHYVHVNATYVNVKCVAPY

SMILES	pKi
Cc1cnc(Nc2ccc(Oc3ccnc(NC(=O)N4CCOCC4)c3)c(F)c2)c(C(=O)Nc2ccccc2)c1 [Example 1, N-(4-(2-fluoro-4-(5-methyl-3-(phenylcarbamoyl)pyridin-2-ylamino)phenoxy)pyridin-2-yl)morpholine-4-carboxamide]	8.77
COc1ccc2c(Oc3ccc(Nc4ncc(-c5ccsc5)cc4C(=O)Nc4ccccc4)cc3F)ccnc2c1 [Example 4, 2-(3-fluoro-4-(7-methoxyquinolin-4-yloxy)phenylamino)-N-phenyl-5-(thiophen-3-yl)nicotinamide]	8.33
O=C(Nc1ccccc1)c1cccnc1Nc1ccc(Oc2ccnc(NC(=O)N3CCCC3)c2)c(F)c1 [Example 5, 2-(3-fluoro-4-(2-(pyrrolidine-1-carboxamido)pyridin-4-yloxy)phenylamino)-N-phenylnicotinamide]	9.22
COc1ccccc1NC(=O)c1cccnc1Nc1ccc(Oc2ccnc3cc(OCc4ccccc4)c(OC)cc23)c(F)c1 [Example 10, 2-(4-(7-(benzyloxy)-6-methoxyquinolin-4-yloxy)-3-fluorophenylamino)-N-(2-methoxyphenyl)nicotinamide]	7.39
CSc1ncc(C(=O)Nc2ccccc2)c(Nc2ccc(Oc3ccnc(NC(=O)N4CCCC4)c3)c(F)c2)n1 [Example 30, 4-(3-fluoro-4-(2-(pyrrolidine-1-carboxamido)pyridin-4-yloxy)phenylamino)-2-(methylthio)-N-phenylpyrimidin-5-carboxamide]	9.70
COc1ccc2c(Oc3ccc(Nc4nccnc4C(=O)Nc4ccccc4)cc3F)ccnc2c1 [Example 36, 3-(3-fluoro-4-(7-methoxyquinolin-4-yloxy)phenylamino)-N-phenylpyrazine-2-carboxamide]	7.53

Second part, the compound after the results:

pKi	SMILES
8.32	COc1cc2c(Oc3ccc(Nc4ncccc4C(=O)NCc4ccccc4)cc3)ccnc2cc1OCCCN1CCOCC1 [Example 15, N-benzyl-2-(4-(6-methoxy-7-(3-morpholinopropoxy)quinolin-4-yloxy)phenylamino)nicotinamide]
6.87	COc1cc2nccc(Oc3ccc(Nc4ncccc4C(=O)NC(C)c4nccs4)cc3)c2cc1OC (stereo not drawn) [Example 24, 2-(4-(6,7-dimethoxyquinoline-4-yloxy)phenylamino)-N-(1-(thiazol-2-yl)ethyl)nicotinamide]
6.30	CNC(=O)c1cccnc1Nc1ccc(Oc2ccnc3cc(OC)c(OC)cc23)cc1 [Example 26, 2-(4-(6,7-dimethoxyquinoline-4-yloxy)phenylamino)-N-methylnicotinamide]
6.75	COc1cc2nccc(Oc3ccc(Nc4ncccc4C(=O)NCc4nccs4)cc3)c2cc1OC [Example 27, 2-(4-(6,7-dimethoxyquinoline-4-yloxy)phenylamino)-N-(thiazol-2-ylmethyl)nicotinamide]
6.24	COc1cc2nccc(Oc3ccc(Nc4ncccc4C(=O)NCc4ncc[nH]4)cc3)c2cc1OC [Example 28, N-((1H-imidazol-2-yl)methyl)-2-(4-(6,7-dimethoxyquinoline-4-yloxy)phenylamino)nicotinamide]
6.71	COc1cc2nccc(Oc3ccc(Nc4ncccc4C(=O)Nc4ncco4)cc3)c2cc1OC [Example 29, 2-(4-(6,7-dimethoxyquinoline-4-yloxy)phenylamino)-N-(oxazol-2-yl)nicotinamide]
